Results reported in US7671069B2, “Tricyclic, heteroaromatic compounds modulating CXCR4 and/ or CXCR7” (ChemoCentryx, Inc., priority 2006, dated 2010).

Tests used:
CCXCKR2 (CXCR7) = target: T1, CCXCKR2 (CXCR7) (Homo sapiens, UniProt P25106); assay: Displacement of 125I SDF-1 from CCXCKR2 (CXCR7) on MCF-7 and/or MDA-MB-435S cells; assay type: binding; conditions: second activity CXCR4/CXCR7
T1 construct: expressed in transfected cells; host or cells: MDA-MB-435S transfected with pcDNA3.1(+)-hRDC1 (G418 selected) and/or MCF-7 (endogenous receptor)
Protocol: The ability of the compounds to displace the labeled chemokine from the CCXCKR2 receptor sites at multiple concentrations was then determined with the screening process.
Reagents and Cells. […] SDF-1 was purchased from Perkin-Elmer Life Sciences, Inc. (Boston, Mass.). The MCF-7 (adenocarcinoma; mammary gland) cell line was obtained from the American Type Culture Collection (Manassas, Va.) or and was cultured in DMEM (Mediatech, Herudon, Va.) supplemented with 10% fetal bovine serum (FBS) (HyClone Logan, Utah) and bovine insulin (0.01 mg/mL) (Sigma, St. Louis, Mo.) at 37° C. in a humidified incubator at a 5% CO2/air mixture. CCXCKR2 transfected MDA-MB-435S were produced as described below. MDA-MB-435S human breast cancer line, was purchased from ATCC, and cultured in DMEM/10% FBS medium. The complete coding sequence of the gene encoding CCXCKR2 (a.k.a.CXCR7, hRDC1), was isolated from MCF-7 cells using μMACs mRNA isolation kit (Miltenyi Biotec, Auburn, Calif.). DNA contamination was removed by DNase digestion via RNeasy columns (Qiagen, Inc., Valencia, Calif.) and cDNA was generated using GeneAmp RNA PCR Core Kit (Applied Biosystems, Foster City, Clif.). PCR of cDNA samples was performed using Taq PCR Master Mix kit (Qiagen, Inc.) and hRDC1 primers harboring 5′ and 3′ Not I sites (hRDC1F 5′ […]-3′ (SEO ID NO:11), hRDC1R 5′-[…]-3′ (SEO ID NO: 12)) Not I digested PCR product was ligated into Not I digested pcDNA3.1 (+)(Invitrogen, Carlsbad, Calif.) and screened for orientation and sequence confirmed. Plasmid DNA was then isolated from overnight bacterial cultures by Maxiprep (Qiagen, Inc.). Plasmid DNA (10μg) was added to MDA-MB-435s cells and cells were electroporated (0.22 kV, 960uF) via Gene Pulser (Biorad laboratories, Hercules, Calif.). 48 hr post-electroporation, cells were transferred to selection medium (1000 ug/ml G418).
Binding Analysis. Target compounds were tested to determine their ability to bind with CCXCKR2 sites on MCF-7 and/or MDA-MB-435S cells. Efficiency-maximized radioligand binding using filtration protocols as described in Dairaghi D J, et al., HHV8-encoded vMIP-I selectively engages chemokine receptor CCR5. Agonist and antagonist profiles of viral chemokines, J. Biol. Chem. Jul. 30, 1999; 274(31): 21569-74 and Gosling J, et al., Cutting edge: identification of a novel chemokine receptor that binds dendritic cell-i and T cell-active chemokines including ELC, SLC, and TECK., J. Immunol. Mar. 15, 2000; 164(6):2851-6 was used.
In these assays, MCF-7 and/or MDA-MB-435S cells were interrogated with the target compounds and the ability of these compounds to displace ^125I radiolabeled SDF-1 was assessed using the protocol described in Dairaghi and Gosling. The target compounds were added to the plate to the indicated concentration and were then incubated with cells followed by the addition of radiolabeled chemokine (^125I SDF-1) for 3 hr at 4° C. in the following binding medium (25 mM HEPES, 140 mM NaCl, 1 mM CaCl2, 5 mM MgCl2 and 0.2% bovine serum albumin, adjusted to pH 7.1). All assays were then incubated for 3 hrs at 4° C. with gentle agitation. Following incubation in all binding assays, reactions were aspirated onto PEI-treated GF/B glass filters (Packard) using a cell harvester (Packard) and washed twice (25 mM HEPES, 500 mM NaCl, 1 mM CaCl2, 5 mM MgCl2, adjusted to pH 7.1). Scintillant (MicroScint 10, Packard) was added to the wells, and the filters were counted in a Packard Topcount scintillation counter. Data were analyzed and plotted using Prism (GraphPad Prism version 3.0a for Macintosh, GraphPad Software, www.graphpad.com).

CXCR4 = target: T2, CXCR4 (Homo sapiens, UniProt P61073); assay: Inhibition of SDF-1 ligand binding or chemotaxis assay for CXCR4; conditions: first (or only) activity listed in CXCR4/CXCR7; chemotaxis assay or binding assays
T2 construct: endogenous in cells; host or cells: CEM-Nkr, CCRF-CEM (ATCC #CCL-119), Jurkat (ATCC #TIB-152), Molt-4 (ATCC# CRL-1582); IL-2 stimulated lymphocytes from human blood
Protocol: CEM-Nkr, CCRF-CEM (ATCC #CCL-119), Jurkat (ATCC #TIB-152), Molt-4 (ATCC# CRL-1 582), cell lines, all endogenously expressing CXCR4, were used in compound screening and subsequent assays. These cell lines were cultured as a suspension in RPMI-1640 medium supplemented with 2 mM L-glutamine, 1.5 g/L sodium bicarbonate, 4.5 g/L glucose, 10 mM HEPES, 1 mM sodium pyruvate, and 10% FBS. Cells were grown under 5% CO2/95% air, 100% humidity at 37° C. and subcultured twice weekly at 1:6 (cells were cultured at a density range of 1×10^5 to 2×10^6 cells/mL) and harvested at 1×10^6 cells/mL.
Il-2 stimulated lymphocytes were isolated from fresh human blood using density separation and centrifigation. Briefly, whole blood is incubated with equal parts 3% dextran and allowed to separate for 45 minutes. After separation, the top layer is then layered on top of 15 mls of Ficoll (15 mls of Ficoll for every 30 mls of blood suspension) and centrifuged for 30 minutes at 400×g with no brake. The pellet at the bottom of the tube is then isolated and resuspended into PharmLyse RBC Lysis Buffer (BD Biosciences, San Jose, Calif.) after which the sample is again centrifuged for 10 minutes at 400×g with brake. The remaining cell pellet is resuspended as appropriate and stimulated with PHA for 2 days, followed by culturing in the presence of human IL-2 cytokine.
Cells were centrifuged and resuspended in assay buffer (20 mM HEPES pH 7.1, 140 mM NaCl, 1 mM CaCl2, 5 mM MgCl2, and with 0.2% bovine serum albumin) to a concentration of 4×10^6 cells/mL for cell lines. Binding assays were set up as follows. 0.15 mL of cells (6×10^5 cells/well) was added to the assay plates containing the compounds, giving a final concentration of ˜2-10 μM each compound for screening (or part of a dose response for compound IC50 determinations). Then 0.1 mL of ^125I labeled SDF-1α (obtained from Perkin Elmer Life Sciences, Boston, Mass.) diluted in assay buffer to a final concentration of ˜[…], yielding ˜30,000 cpm per well, was added, the plates sealed and incubated for approximately 3 hours at 4° C. on a shaker platform. Reactions were aspirated onto GF/B glass filters pre-soaked in 0.3% polyethyleneimine (PEI) solution, on a vacuum cell harvester (Packard Instruments; Meriden, Conn.). Scintillation fluid (40 μl; Microscint 20, Packard Instruments) was added to each well, the plates were sealed and radioactivity measured in a Topcount scintillation counter (Packard Instruments). Control wells containing either diluent only (for total counts) or excess SDF1a (1 μg/mL, for non-specific binding) were used to calculate the percent of total inhibition for compound. The computer program Prism from Graph Pad, Inc. (San Diego, Calif.) was used to calculate IC50 values. IC50 values are those concentrations required to reduce the binding of radiolabeled SDF-1α to the receptor by 50%. (For further descriptions of ligand binding and other functional assays, see Dairaghi, et al., J. Biol. Chem. 274:21569-21574 (1999), Penfold, et al., Proc. Natl. Acad. Sci. USA. 96:9839-9844 (1999), and Dairaghi, et al,. J. Biol. Chem. 272:28206-28209 (1997)).
Chemotaxis assays were performed using 5 μm pore polycarbonate, polyvinylpyrrolidone-coated filters in 96-well chemotaxis chambers (Neuroprobe; Gaithersburg, Md.) using chemotaxis buffer (Hank's balanced salt solution (HBSS) and 1% FBS). CXCR4 ligand (i.e., SDF1a, R&D Systems; Minneapolis, Minn.) are use to evaluate compound mediated inhibition of CXCR4 mediated migration. Other chemokines (i.e., TECK; R&D Systems; Minneapolis, Minn.) are used as specificity controls. The lower chamber was loaded with 29 μl of chemokine (i.e., 0.1 nM SDF1a); the top chamber contained 50,000 Jurkat cells or IL-2 lymphocytes in 20 μl. […]

T1 sequence (P25106 whole entry): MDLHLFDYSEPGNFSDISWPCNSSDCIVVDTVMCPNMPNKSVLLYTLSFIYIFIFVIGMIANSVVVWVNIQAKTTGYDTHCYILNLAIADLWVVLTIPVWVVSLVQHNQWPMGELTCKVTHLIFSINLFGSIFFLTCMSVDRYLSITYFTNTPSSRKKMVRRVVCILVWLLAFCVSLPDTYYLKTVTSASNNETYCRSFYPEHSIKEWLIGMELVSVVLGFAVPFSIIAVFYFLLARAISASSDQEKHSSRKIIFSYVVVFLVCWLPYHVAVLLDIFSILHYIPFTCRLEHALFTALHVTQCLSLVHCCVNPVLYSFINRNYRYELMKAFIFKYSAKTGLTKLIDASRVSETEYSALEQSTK
T2 sequence (P61073 whole entry): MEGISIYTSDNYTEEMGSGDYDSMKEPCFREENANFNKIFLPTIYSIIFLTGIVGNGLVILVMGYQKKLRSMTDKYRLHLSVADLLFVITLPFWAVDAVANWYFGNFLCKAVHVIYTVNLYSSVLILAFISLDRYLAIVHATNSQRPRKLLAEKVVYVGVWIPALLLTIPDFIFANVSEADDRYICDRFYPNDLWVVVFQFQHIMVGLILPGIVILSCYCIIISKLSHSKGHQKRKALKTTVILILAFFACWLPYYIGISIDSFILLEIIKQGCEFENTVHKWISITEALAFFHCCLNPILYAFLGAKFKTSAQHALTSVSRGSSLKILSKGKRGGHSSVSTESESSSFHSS

SMILES	IC50 (CCXCKR2 (CXCR7)) [nM]	IC50 (CXCR4) [nM]
COc1ccc2oc(=O)c3cnn(CC(=O)NCCN(C)C4CCCCC4)c3c2c1 [Compound 24]	< 1000	< 1000
COc1ccc2c(c1)c1c(cnn1CC(=O)NCCN(C)C1CCCCC1)c(=O)n2C [Compound 30]	< 1000	1000 to 10000
COc1ccc2c(c1)c1c(cnn1CC(=O)NCCNC1CCCCC1)c(=O)n2C [Compound 31]	< 1000	> 10000
COc1ccc2c(c1)c1c(cnn1CC(=O)NCCN(C)C1CCCCCCC1)c(=O)n2C [Compound 32]	< 1000	1000 to 10000
